In US20220040150A1, “I[…] ADMI[…] FOR DMT-ASSISTED PSYCHOTHERAPY” (Universitatsspital Basel, priority 2020, published 2022):
Where two headings read alike, the source gives them in different places.

Tests used:
[1] = Plasma levels of DMT after intravenous bolus plus continuous infusion (Gouzoulis-Mayfrank et al., 2005); type: in vivo; conditions: human
Protocol: Previous research already documented the rapid action of DMT and its safety (Gouzoulis-Mayfrank et al., 2005). A study included 15 healthy volunteers. DMT was given at either a low or a high dose. The low dose consisted of a bolus injection of 0.2 mg/kg (˜15 mg) over 5 minutes followed by a break of one minute, followed by a continuous infusion with 0.015 mg/kg (˜1 mg)/min over 84 minutes. The high dose consisted of a bolus injection of 0.3 mg/kg (˜23 mg) and a continuous infusion with 0.02 mg/kg (˜1.5 mg)/min. The two doses were administered on the same day with a two-hour break between the end of the first and the beginning of the second administration in a single-blind design. Subjective effects were assessed and plasma concentrations of DMT were determined during the perfusion and thereafter. Effects of both doses included vivid alterations of visual, auditory, and tactile perception. […] Most subjects tended to report their experiences during the experiment spontaneously, and they were interested in interpersonal interactions. Mood varied from anxious and tense to expansive and euphoric with mostly vivid verbal, mimic, and psychomotor expression of emotions. Ego-control and insight into the experimental nature of the experience were preserved at the low dose. […]

5-HT1A receptor = target: T1, 5-HT1A receptor (Homo sapiens, UniProt P08908); conditions: sub-hallucinogenic dose of 0.1 mg/kg DMT, twelve subjects; cited from earlier work
T1 construct: host or cells: human volunteers (in vivo)
T1 sequence (P08908 1-422): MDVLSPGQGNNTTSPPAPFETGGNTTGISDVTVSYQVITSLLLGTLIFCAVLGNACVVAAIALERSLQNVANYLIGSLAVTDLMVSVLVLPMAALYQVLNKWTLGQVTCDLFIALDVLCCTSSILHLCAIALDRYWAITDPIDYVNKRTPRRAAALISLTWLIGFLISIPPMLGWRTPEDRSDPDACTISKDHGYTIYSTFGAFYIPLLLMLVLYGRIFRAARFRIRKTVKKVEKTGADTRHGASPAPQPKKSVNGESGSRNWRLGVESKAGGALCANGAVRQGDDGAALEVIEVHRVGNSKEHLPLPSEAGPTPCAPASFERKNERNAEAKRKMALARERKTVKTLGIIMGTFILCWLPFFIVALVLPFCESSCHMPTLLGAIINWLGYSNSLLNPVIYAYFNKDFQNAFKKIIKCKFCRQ

5-HT1 receptor = target: T2, 5-HT1 receptor (Homo sapiens, UniProt P08908); conditions: in contrast to psilocybin; cited from earlier work
T2 sequence (P08908 1-422): T1 sequence (P08908 1-422)

healthy subjects = experiment: Example 1 clinical study: subjective effects rating over time
[2] = perfusion with placebo bolus, two subjects

## CN(C)CCc1c[nH]c2ccccc12 [DMT, N,N-dimethyltryptamine]
[1]; in line with subjective effects and Strassman data, read-out: true half-life (likely)
  half-life: ~10 min
[1]; indicated by the very crude and possibly invalid plasma data, read-out: elimination half-life
  half-life: ~30 min
5-HT1A receptor
  enhancement of DMT effects by pindolol pre-treatment: two to three times
5-HT1 receptor
  affinity to the 5-HT1 receptor: greater affinity
Healthy subjects; 90 minutes perfusion
  duration of the psychedelic state: approximately 90 minutes
Healthy subjects; available data from Example 1
  time to new steady state after starting the perfusion: approximately 20 minutes
Healthy subjects; bolus and perfusion, 2-5 minutes after the bolus
  ratings of bad drug effects and anxiety: small increases
Healthy subjects; bolus and perfusion, mean in three subjects
  ratings of any drug effects: maximal within seconds
Healthy subjects; bolus and perfusion, three subjects
  ratings of good drug effects: maximal immediately after the DMT bolus administration and up to 30 minutes
Healthy subjects; perfusion with placebo bolus
  bad drug effects and anxiety ratings: no bad drug effects and no anxiety
  time over which good drug effects steadily increased after start of the perfusion: 30 min
  time to disappearance of good drug effects after stopping the perfusion: less than 10 minutes
Healthy subjects; perfusion with placebo bolus, dose used in the example
  description of the DMT experience: overall similar to LSD at a moderate dose of 0.05-0.1 mg LSD base
Healthy subjects; [2]
  time over which any drug effects steadily increased after starting the perfusion: 30 min
  time to disappearance of effect after perfusion ended at 90 minutes: less than 10 minutes
